According to ChEMBL document CHEMBL1201862, “PubChem BioAssay data set” (2004):
Activity calls are given as the source filed them.

How the values were obtained:
[1] = human group III sPLA2 inhibitors, dose response, biochemical, QFRET, IC50 (AID 743457);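 also: green fluorescence rise as the enzyme cleaves BODIPY PC-A2 in liposomes; potency for inhibition of the enzyme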
[2] = target: T1, Trace amine-associated receptor 1 (Homo sapiens, UniProt Q96RJ0); assay: Fluorescence-based cell-based high throughput dose response assay to identify agonists of the human trace amine associated receptor 1 (TAAR1).; format: functional
T1 sequence (Q96RJ0 whole entry): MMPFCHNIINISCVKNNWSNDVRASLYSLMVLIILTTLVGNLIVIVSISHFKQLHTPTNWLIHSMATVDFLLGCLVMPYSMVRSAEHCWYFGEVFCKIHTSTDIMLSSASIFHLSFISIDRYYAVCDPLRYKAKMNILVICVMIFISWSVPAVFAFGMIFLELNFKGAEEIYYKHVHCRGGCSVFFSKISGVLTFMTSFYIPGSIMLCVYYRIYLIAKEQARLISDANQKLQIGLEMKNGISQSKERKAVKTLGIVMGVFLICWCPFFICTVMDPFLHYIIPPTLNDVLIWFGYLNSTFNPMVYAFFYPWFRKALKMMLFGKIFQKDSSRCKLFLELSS

cells [3] = format: functional, cell-based
cells [4] = format: functional, cell-based; remark: listed apart in the source
[5] = target: T1, Trace amine-associated receptor 1; assay: Counterscreen for agonists of the human trace amine associated receptor 1 (hTAAR1): Fluorescence-based cell-based high throughput dose response assay to identify hTAAR1 agonist that also desensitize TAAR1 receptor response.; format: functional
cells [6] = format: functional, cell-based; details: HEK-CNG
Galanin receptor type 3 = Galanin receptor type 3 (Homo sapiens, UniProt O60755); assay: Fluorescence-based cell-based primary high throughput dose response assay to identify antagonists of the Galanin Receptor 3 (GalR3).; format: functional
Chain of Galanin receptor type 3 (O60755 whole entry): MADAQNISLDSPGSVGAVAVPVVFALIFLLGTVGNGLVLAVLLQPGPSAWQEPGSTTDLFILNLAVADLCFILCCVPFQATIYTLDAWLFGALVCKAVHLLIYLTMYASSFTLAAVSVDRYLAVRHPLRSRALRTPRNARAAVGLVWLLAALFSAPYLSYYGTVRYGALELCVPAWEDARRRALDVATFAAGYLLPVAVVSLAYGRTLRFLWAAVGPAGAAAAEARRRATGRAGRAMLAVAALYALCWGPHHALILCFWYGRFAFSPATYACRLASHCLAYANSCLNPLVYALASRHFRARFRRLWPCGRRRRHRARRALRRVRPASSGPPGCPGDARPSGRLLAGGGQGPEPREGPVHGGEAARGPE

[7] = target: G-protein coupled receptor 35 (Homo sapiens, UniProt Q9HC97); assay: GPR35 antagonists blocking zaprinast-driven arrestin recruitment, primary screen, imaging, U2OS, beta-arrestin-GFP, zaprinast agonist (AID 2058); format: functional;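 also: antagonist potency meaning inhibition of agonist-induced arrestin redistribution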
Chain of G-protein coupled receptor 35 (Q9HC97 whole entry): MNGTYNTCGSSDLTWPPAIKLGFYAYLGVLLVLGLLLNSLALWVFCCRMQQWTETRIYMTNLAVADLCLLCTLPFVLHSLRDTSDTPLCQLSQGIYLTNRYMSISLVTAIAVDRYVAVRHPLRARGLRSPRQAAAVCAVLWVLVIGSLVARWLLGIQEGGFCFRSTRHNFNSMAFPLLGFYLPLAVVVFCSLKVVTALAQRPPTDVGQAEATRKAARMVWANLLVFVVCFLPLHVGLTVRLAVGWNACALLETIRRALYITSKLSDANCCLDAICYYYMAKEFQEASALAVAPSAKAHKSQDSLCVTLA

[8] = cytotoxicity in HEK-293T cells, dose response, cytotoxicity control for TCR NF-kB inhibitor project, luminescence, T-cell screen hits (AID 489026); format: functional, cell-based;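 also: cells exposed to compound about 14 hours before the viability readout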
[9] = target: COUP transcription factor 2 (Homo sapiens, UniProt P24468); assay: Luminescence-based cell-based high throughput dose response assay to identify inhibitors of COUP-TFII (NR2F2).; format: functional;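 also: HEK293 cells transiently cotransfected with COUP-TFII expression vector and reporter; luciferase reporter luminescence driven by COUP-TFII from the pX2-168 reporter plasmid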
Chain of COUP transcription factor 2 (P24468 whole entry): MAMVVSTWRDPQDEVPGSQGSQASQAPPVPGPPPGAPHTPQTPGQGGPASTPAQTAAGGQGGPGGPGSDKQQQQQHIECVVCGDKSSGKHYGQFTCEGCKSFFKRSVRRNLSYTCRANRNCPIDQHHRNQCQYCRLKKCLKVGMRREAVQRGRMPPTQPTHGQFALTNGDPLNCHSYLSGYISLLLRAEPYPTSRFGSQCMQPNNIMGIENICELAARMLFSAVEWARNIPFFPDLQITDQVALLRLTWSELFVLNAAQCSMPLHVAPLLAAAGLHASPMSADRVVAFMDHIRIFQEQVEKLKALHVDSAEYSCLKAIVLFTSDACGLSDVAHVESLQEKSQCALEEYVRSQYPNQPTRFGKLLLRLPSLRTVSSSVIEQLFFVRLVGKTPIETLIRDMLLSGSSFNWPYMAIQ

[10] = target: T2, Microphthalmia-associated transcription factor (Homo sapiens, UniProt O75030); assay: TRPM1 promoter luciferase signal decrease, dose response, MITF inhibitor project, cell-based, SK-MEL-5, cherry-picked, set 3 (AID 493073); format: functional
T2 sequence (O75030 whole entry): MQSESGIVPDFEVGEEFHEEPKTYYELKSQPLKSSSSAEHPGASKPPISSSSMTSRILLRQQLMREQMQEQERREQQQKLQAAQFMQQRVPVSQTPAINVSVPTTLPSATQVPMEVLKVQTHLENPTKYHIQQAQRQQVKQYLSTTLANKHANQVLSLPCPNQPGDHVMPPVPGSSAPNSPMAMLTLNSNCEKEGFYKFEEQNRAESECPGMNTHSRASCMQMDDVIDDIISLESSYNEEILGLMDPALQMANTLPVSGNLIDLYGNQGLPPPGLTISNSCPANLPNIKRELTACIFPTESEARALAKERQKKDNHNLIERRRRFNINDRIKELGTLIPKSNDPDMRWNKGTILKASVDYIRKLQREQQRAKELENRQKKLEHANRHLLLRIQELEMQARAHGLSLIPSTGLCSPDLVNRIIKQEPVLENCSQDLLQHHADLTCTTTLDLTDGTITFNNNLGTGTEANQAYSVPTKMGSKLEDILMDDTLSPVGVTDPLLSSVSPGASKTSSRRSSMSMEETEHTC

A-375 = assay: A375 melanoma cell viability reduction, dose response, counter-screen for MITF modulator project, cherry-pick samples, set 2 (AID 540335); format: functional, cell-based; details: Homo sapiens
Streptococcus = assay: Group A Streptococcus viability loss, dose response, counter-screen for streptokinase expression inhibitor project, luminescence, BacTiterGlo (AID 1915); format: functional, organism-based;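 also: potency for reduction of bacterial viability or growth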
Streptokinase A = target: T3, Streptokinase A (Streptococcus pyogenes serotype M1, UniProt P10520); assay: S. pyogenes streptokinase expression inhibitors, potency, dose response, plasminogen activation absorbance, OD405 (AID 1914); format: functional, Streptococcus pyogenes M1 GAS;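 also: secreted streptokinase activity via plasminogen activation per viability signal from cell pellet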
T3 sequence (P10520 whole entry): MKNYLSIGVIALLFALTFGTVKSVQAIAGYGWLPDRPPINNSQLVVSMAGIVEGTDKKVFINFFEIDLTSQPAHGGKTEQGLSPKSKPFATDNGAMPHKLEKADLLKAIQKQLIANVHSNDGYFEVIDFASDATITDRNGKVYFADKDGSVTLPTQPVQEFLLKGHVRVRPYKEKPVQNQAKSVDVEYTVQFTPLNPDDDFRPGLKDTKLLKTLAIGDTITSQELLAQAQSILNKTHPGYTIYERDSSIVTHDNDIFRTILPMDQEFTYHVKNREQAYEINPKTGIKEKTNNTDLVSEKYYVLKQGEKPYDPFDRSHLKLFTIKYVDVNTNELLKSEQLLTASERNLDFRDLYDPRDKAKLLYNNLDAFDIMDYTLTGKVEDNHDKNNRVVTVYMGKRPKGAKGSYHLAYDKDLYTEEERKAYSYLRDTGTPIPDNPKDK

[11] = ADAM10 protease inhibitors, dose response, selectivity assay for ADAM17 exosite inhibitor project, biochemical, FRET peptide substrate, recombinant human ADAM10 (AID 743259);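 also: ADAM10 enzyme cleaving a FRET peptide substrate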
[12] = target: Disintegrin and metalloproteinase domain-containing protein 17 (Homo sapiens, UniProt P78536); assay: exosite inhibitors of ADAM17, dose response, biochemical (AID 743260)
Chain of Disintegrin and metalloproteinase domain-containing protein 17 (P78536 whole entry, the tested form may be a part): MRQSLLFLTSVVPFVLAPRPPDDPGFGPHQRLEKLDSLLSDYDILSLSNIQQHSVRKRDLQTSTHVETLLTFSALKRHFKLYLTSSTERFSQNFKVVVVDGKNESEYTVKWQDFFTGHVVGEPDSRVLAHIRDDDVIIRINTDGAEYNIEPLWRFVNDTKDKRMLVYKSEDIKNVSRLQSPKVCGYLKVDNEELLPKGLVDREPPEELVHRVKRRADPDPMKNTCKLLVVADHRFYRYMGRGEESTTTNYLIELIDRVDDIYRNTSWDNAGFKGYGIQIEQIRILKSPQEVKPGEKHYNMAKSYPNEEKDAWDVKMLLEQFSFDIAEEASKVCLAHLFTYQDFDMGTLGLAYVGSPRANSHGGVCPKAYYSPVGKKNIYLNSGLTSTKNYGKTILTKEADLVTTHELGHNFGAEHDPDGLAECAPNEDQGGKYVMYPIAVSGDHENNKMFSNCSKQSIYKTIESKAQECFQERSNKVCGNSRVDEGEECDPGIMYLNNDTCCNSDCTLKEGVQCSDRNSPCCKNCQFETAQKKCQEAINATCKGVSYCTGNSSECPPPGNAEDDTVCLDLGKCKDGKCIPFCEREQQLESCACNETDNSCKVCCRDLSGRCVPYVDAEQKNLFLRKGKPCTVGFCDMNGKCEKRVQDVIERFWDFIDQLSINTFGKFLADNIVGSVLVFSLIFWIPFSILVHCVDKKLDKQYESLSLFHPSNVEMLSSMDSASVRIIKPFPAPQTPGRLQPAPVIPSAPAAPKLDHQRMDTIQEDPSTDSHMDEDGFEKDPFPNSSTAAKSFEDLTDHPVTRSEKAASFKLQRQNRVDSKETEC

[13] = test system: Streptococcus sp. 'group A'; assay: growth inhibition of control SK(-) GAS strain, dose response, counter-screen for streptokinase expression inhibitor project, luminescence, kanamycin, BacTiterGlo, confirmation (AID 1900); format: functional, organism-based
[14] = THP-1 cell cytotoxicity, dose response, cytotoxicity control for Vif-APOBEC3G degradation inhibitor project, THP-1 cells (AID 1117359); format: functional; details: Human immunodeficiency virus 1, THP-1
[15] = target: T4, Sentrin-specific protease 1 (Homo sapiens, UniProt Q9P0U3); assay: potency of human SENP1 inhibitors, dose response, biochemical, kinetic FRET (AID 651697); format: functional; details: read-out: IC50_Mean
T4 sequence (Q9P0U3 whole entry): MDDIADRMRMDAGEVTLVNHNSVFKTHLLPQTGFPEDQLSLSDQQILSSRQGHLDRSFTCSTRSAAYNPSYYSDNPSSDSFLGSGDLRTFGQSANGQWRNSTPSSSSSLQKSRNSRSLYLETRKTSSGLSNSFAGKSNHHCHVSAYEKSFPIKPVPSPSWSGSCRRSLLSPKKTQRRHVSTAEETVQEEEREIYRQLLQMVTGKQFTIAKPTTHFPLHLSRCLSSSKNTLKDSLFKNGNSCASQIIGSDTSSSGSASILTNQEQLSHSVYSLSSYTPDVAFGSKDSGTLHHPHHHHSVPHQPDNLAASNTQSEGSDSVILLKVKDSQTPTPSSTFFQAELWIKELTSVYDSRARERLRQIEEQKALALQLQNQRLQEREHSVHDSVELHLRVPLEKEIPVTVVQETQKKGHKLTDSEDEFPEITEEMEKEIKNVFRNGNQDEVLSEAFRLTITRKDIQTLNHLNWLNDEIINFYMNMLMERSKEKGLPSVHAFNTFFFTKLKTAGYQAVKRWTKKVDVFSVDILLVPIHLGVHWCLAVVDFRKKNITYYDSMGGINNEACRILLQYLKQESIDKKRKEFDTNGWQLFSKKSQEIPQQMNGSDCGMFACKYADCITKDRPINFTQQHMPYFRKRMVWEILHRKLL

[16] = target: T4, Sentrin-specific protease 1; assay: Dose response confirmation of small molecule inhibitors of the catalytic domain of the SUMO protease, SENP1 in a FRET assay.; format: functional; details: read-out: IC50_Mean
[17] = target: NAD-dependent protein deacylase sirtuin-5, mitochondrial (Homo sapiens, UniProt Q9NXA8); assay: SIRT5 desuccinylase inhibitors, dose response, biochemical, fluorescence imaging, cherry-pick, set 5 (AID 720591);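 also: desuccinylation of succinyl peptide AMC substrate read as fluorescence after trypsin release; potency of inhibitors that lower fluorescence and may act on trypsin instead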
Chain of NAD-dependent protein deacylase sirtuin-5, mitochondrial (Q9NXA8 whole entry): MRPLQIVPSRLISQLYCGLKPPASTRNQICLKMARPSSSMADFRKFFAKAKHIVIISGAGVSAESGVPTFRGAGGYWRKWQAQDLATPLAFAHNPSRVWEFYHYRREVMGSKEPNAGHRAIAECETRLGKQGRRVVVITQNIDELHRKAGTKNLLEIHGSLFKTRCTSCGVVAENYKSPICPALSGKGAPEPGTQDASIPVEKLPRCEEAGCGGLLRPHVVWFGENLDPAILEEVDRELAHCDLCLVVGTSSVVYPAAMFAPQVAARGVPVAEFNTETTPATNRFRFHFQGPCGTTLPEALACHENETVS

## CC(C)Cc1c(C#N)c(S)nc2c1CCCC2
[1]
  IC50: > 122 µM (inactive)

## O=C(O)/C=C/C(=O)NCCc1ccccc1
[2]
  EC50: 0.153 µM (active)
Cells [3]
  IC50: > 29.9 µM (inactive)
Cells [4]
  EC50: > 29.9 µM (inactive)
[5]
  IC50: 1.19 µM (active)

## COc1cccc2[nH]c3c(N4CCC(C)CC4)ncnc3c12
Cells [6]
  EC50: > 29.9 µM (inactive)
Galanin receptor type 3
  IC50: 0.379 µM (active)

## CC1=CC(=Cc2sc3ccccc3[n+]2C)C=C(C)N1CC1CCCO1 (centres undefined)
[7]
  IC50: 1.44 µM (active)
[8]
  IC50: > 80 µM (inactive)
[9]
  IC50: 4.97 µM (active)
[10]
  AC50: 1.82 µM (active)
A-375
  AC50: 24.4 µM (active)

## CCCCC[C@@H](/C=C/C1C(=O)C=C[C@H]1C/C=C\CCCC(=O)O)OC(C)=O (some centres undefined)
Cells [6]
  EC50: > 29.9 µM (inactive)
Galanin receptor type 3
  IC50: 1.09 µM (active)

## COc1ccc(C2CC(O)(c3ccccc3)Oc3c(C)ccc(C)c32)cc1 (centres undefined)
Streptococcus
  EC50: > 150 µM (not active)
Streptokinase A
  EC50: > 150 µM (not active)
[11]
  IC50: 12.7 µM (inactive)
[12]
  IC50: > 69.5 µM (inactive)
[13]
  EC50: > 150 µM (not active)
[14]
  CC50: 28.5 µM (active)

## COc1ccccc1N=C(S)NNC(=O)c1nn(C)cc1Cl
[1]
  IC50: > 122 µM (inactive)

## CCC(=NN=C(CC)c1ccccc1O)c1ccccc1O
[15]
  IC50: 8.19 µM (active)
[16]
  IC50: 10.4 µM (active)

## C=CCSc1nnc(NC(=O)c2cn(CC)c3nc(C)ccc3c2=O)s1
[17]
  AC50: > 30 µM (inactive)
